Earlier results on one substance are cited in article PMC8433641, “A Stability-Indicating Ultra Performance Liquid Chromato-Graphic (UPLC) Method for the Determination of a Mycophenolic Acid-Curcumin Conjugate and Its Applications to Chemical Kinetic Studies” (Molecules, 2021).

Details of the data set: method as in PMID 29678124. To be noted: pH 7.4.

As to curcumin, the t1/2 is 33.6 min.
